Data taken from US20100324303A1, “Use of Tetramic Acid Derivatives for Controlling Animal Pests After Treatment of the Trunk, the Branches, the Influorescences or the Buds” (Bayer CropScience AG, priority 2008, published 2010).
Where two headings read alike, the source gives them in different places.

Tests used:
Assay type in all cases: in vivo
[1] = test system: banana flower thrips (Thrips hawaiiensis); experiment: Flower bud injection on banana trees against banana flower thrips; settings: banana cv. Cavendish, 80 ml injected into flower buds, destruction of population on influorescences and bunches, imidacloprid (100 SL) 0.1 g a.i./l, Example (II) (100 OD) 0.3 g a.i./l; for Activity in % Abbott 3 d: 3 days after treatment; for Activity in % Abbott 91 d: 91 days after treatment
Experimental: Banana trees cv. “Cavendish” are treated in three replications against banana flower thrips (Thrips hawaiiensis). Here, the active substances Example (II) (100 OD) are tested versus the commercial standard imidacloprid (100 SL) at the application rates specified. The application is carried out by injecting in each case 80 ml of injection solution into the flower buds. In each case three flower buds are treated. The evaluation is effected 3 and 91 days after the treatment by scoring the destruction of the population on the influorescences and bunches.

[2] = test system: pineapple mealybug Dysmicoccus brevipes; experiment: Pseudostem (and foliar) spray application on banana trees against pineapple mealybug; settings: banana cv. Cavendish, 50 ml on leaves and 50 ml on peeled stem, mealybug on the stem, Banole oil 30 g/l, chlorpyrifos-methyl 0.8 g/l, (II) SC 240 0.3 g/l in tank mix with 0.025% Hoestick
Experimental: Banana trees (growth stage BBCH 1130) cv. “Cavendish” consisting of mother plant and sucker are treated in three replications following foliar treatment against Aspidiotus destructor and against the pineapple mealybug Dysmicoccus brevipes by pseudostem application. To this end, in each case 100 ml of spray solution are applied, in each case 50 ml being sprayed onto the leaves and 50 ml onto the stem. Before the stem application, the outermost stem layer is first peeled off, which is general practice. Here, the active substance (II) (SC 240) is tested in a tank mix along with 0.025% Hoestick (XL 500) versus the commercial standards chlorpyrifos-methyl (500 EC) and liquid paraffin (Banole oil) (EC 600).
The evaluation is carried out 3, 7, 14 and 22 days after the treatment by scoring the destruction of the pineapple mealybug on the stem.

[3] = test system: California red scale Aonidiella aurantii; experiment: Stem application by painting on to orange trees against California red scale; settings: 205 days after treatment, orange trees cv. Valencia, infestation on the fruits, imidacloprid 2 g a.i./tree, Example (II) (SC 240) 4 g a.i./tree
Experimental: Young orange trees cv. “Valencia” which are approximately 5 years old are treated in three applications against the California red scale Aonidiella aurantii after stem application by painting on the active substances. Here, the active substance (II) (SC 240) is tested versus the commercial standard imidacloprid at the application rates detailed. The evaluation is carried out 205 days after the treatment by scoring the infestation on the fruits.

Compound | Activity in % Abbott 3 d [1] | Activity in % Abbott 91 d [1] | inhibition at 300 µg/mL ([2]; SC240, 72 h, 3 days after treatment, read-out: Activity (%) Abbott 3 d) | inhibition at 300 µg/mL ([2]; SC240, 168 h, 7 days after treatment, read-out: Activity (%) Abbott 7 d) | inhibition at 300 µg/mL ([2]; SC240, 336 h, 14 days after treatment, read-out: Activity (%) Abbott 14 d) | inhibition at 300 µg/mL ([2]; SC240, 528 h, 22 days after treatment, read-out: Activity (%) Abbott 22 d) | Efficacy (% Abbott) [3]
CCOC(=O)OC1=C(c2cc(C)ccc2C)C(=O)N[C@]12CC[C@@H](OC)CC2 [Example (II)] | 66.7 % Abbott | 100 % Abbott | 81.2% | 92.3% | 96.4% | 96.7% | 100 % Abbott
O=[N+]([O-])NC1=NCCN1Cc1ccc(Cl)nc1 [Imidacloprid, imidacloprid, reference compound] | 98.4 % Abbott | 100 % Abbott |  |  |  |  | 100 % Abbott
